Measured values as given in patent publication US9730447B2, “Fungicidal amides” (E I DU PONT DE NEMOURS AND COMPANY, priority 2013, dated 2017).

Assays:
Botrytis cinerea = experiment: Test A: preventive spray on tomato seedlings, Botrytis cinerea (gray mold), visual disease rating; assay type: in vivo; settings: 100 = 100% disease control, 0 = no control relative to controls, unmarked values; for pest or weed control at 40 µg/mL, 160 g/ha: 96 h
How it was run: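 Tomato seedlings sprayed to run-off with 40 ppm or 10 ppm suspensions (160 or 40 g ai/ha) in acetone/water with 250 ppm surfactant. Inoculated with B. cinerea spores next day, held saturated at 20 °C for 48 h, then 27 °C for 2 days. Visual rating, 0–100% disease control relative to controls.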

[1] = test system: Stagonospora nodorum (also known as Septoria nodorum); experiment: Test B: preventive spray on wheat seedlings, Stagonospora nodorum (wheat glume blotch), visual disease rating; assay type: in vivo; settings: 100 = 100% disease control, 0 = no control, unmarked values
How it was run: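 Compounds in acetone/water (50/50) with 250 ppm Trem 014 surfactant were sprayed to run-off at 40 ppm (160 g ai/ha) or 10 ppm (40 g ai/ha). Seedlings were inoculated with S. nodorum spores the next day, then held 48 h saturated at 20 °C and 6 days in a growth chamber at 20 °C. Visual rating as % disease control vs untreated.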

Septoria tritici = experiment: Test C: preventive spray on wheat seedlings, Septoria tritici (wheat leaf blotch), visual disease rating; assay type: in vivo; settings: 100 = 100% disease control, 0 = no control, unmarked values
How it was run: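 Wheat seedlings sprayed to run-off at 40 ppm or 10 ppm (160 or 40 g ai/ha) in acetone/water with surfactant, inoculated with Septoria tritici spores next day. Held 48 h saturated at 24 °C, then 21 days at 20 °C. Visual rating scored as % disease control relative to controls.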

[2] = test system: Puccinia recondite f. sp. tritici; experiment: Test D: preventive spray on wheat seedlings, Puccinia recondite f. sp. tritici (wheat leaf rust), visual disease rating; assay type: in vivo; settings: 100 = 100% disease control, 0 = no control, unmarked values
How it was run: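 Wheat seedlings sprayed to run-off with 40 ppm (160 g ai/ha) or 10 ppm (40 g ai/ha) suspension in acetone/water with 250 ppm surfactant, inoculated next day with leaf rust spores. After 24 h saturated at 20 °C then 6 days at 20 °C, visual rating of disease control (0–100) relative to controls.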

[3] = test system: Erysiphe graminis f. sp. tritici; experiment: Test E: preventive spray on wheat seedlings, Erysiphe graminis f. sp. tritici (wheat powdery mildew), visual disease rating; assay type: in vivo; settings: 100 = 100% disease control, 0 = no control, unmarked values
How it was run: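 Wheat seedlings were sprayed to run-off with 40 or 10 ppm suspension (160 or 40 g ai/ha) and dusted with spores the next day. They were then kept 8 days at 20 °C. Disease was rated visually as % control relative to untreated controls (0–100).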

Row | SMILES | melting point [°C] | pest or weed control at 40 µg/mL, 160 g/ha (Botrytis cinerea) [%] | also measured
1 | Cn1cc(C(=O)Nc2ccccc2-c2ccc(-n3ccc(C(F)(F)F)n3)nn2)c(C(F)F)n1 [Compound 54, 3-(difluoromethyl)-1-methyl-N-[2-[6-[3-(trifluoromethyl)-1H-pyrazol-1-yl]-3-pyridazinyl]phenyl]-1H-pyrazole-4-carboxamide] | 248 to 250 | 0 | –
2 | O=C(Nc1ccccc1-c1cnc(-n2ccc(C(F)(F)F)n2)nc1)c1ncccc1C(F)(F)F [Compound 56, 3-(trifluoromethyl)-N-[2-[2-[3-(trifluoromethyl)-1H-pyrazol-1-yl]-5-pyrimidinyl]phenyl]-2-pyridinecarboxamide] | 178 to 180 | 16 | –
3 | Cn1cc(C(=O)Nc2ccccc2-c2ccc(-n3ccc(C(F)(F)F)n3)nc2)c(C(F)F)n1 [Compound 51, 3-(difluoromethyl)-N-[2-[6-[3-(trifluoromethyl)-1H-pyrazol-1-yl]-3-pyridinyl]phenyl]-1-methyl-1H-pyrazole-4-carboxamide] | 157 to 159 | 97 | –
4 | O=C(Nc1ccccc1-c1cnc(-n2ccc(C(F)(F)F)n2)cn1)c1ccccc1C(F)(F)F [Compound 1, 2-(trifluoromethyl)-N-[2-[5-[3-(trifluoromethyl)-1H-pyrazol-1-yl]-2-pyrazinyl]phenyl]benzamide] | 180 to 182 | 27 | –
5 | Cn1cc(C(=O)Nc2ccccc2-c2cnc(-n3ccc(-c4ccccc4)n3)c(F)c2)c(C(F)F)n1 [compound 76] | – | – | Test A disease control rating (Botrytis cinerea): 99%; Test B disease control rating [1]: 0%; Test C disease control rating (Septoria tritici): 100%; Test D disease control rating [2]: 100%; Test E disease control rating [3]: 99%

The next lines start with results.

Row | melting point [°C] | SMILES | pest or weed control at 40 µg/mL, 160 g/ha (Botrytis cinerea) [%] | also measured
6 | 207 to 209 | Cn1cc(C(=O)Nc2ccccc2-c2cnc(-n3ccc(C(F)(F)F)n3)cn2)c(C(F)F)n1 [Compound 2, 3-(difluoromethyl)-1-methyl-N-[2-[5-[3-(trifluoromethyl)-1H-pyrazol-1-yl]-2-pyrazinyl]phenyl]-1H-pyrazole-4-carboxamide] | 15 | –
7 | 167 to 169 | Cn1cc(C(=O)Nc2ccccc2-c2cnc(-n3ccc(C(F)(F)F)n3)nc2)c(C(F)F)n1 [Compound 58, 3-(difluoromethyl)-1-methyl-N-[2-[2-[3-(trifluoromethyl)-1H-pyrazol-1-yl]-5-pyrimidinyl]phenyl]-1H-pyrazole-4-carboxamide] | 0 | –
